# Data reported in patent US9687522B2, “Methods of treating a subject afflicted with an autoimmune disease using predictive biomarkers of clinical response to glatiramer acetate therapy in multiple sclerosis” (TEVA PHARMACEUTICAL INDUSTRIES, LTD., priority 2010, dated 2017).
# Columns and labels:
# IL-18 = experiment: Serum IL-18 by ELISA in GA-treated MS patients; type: in vivo, human
# Text: (§1) Approximately 60 cc of blood was obtained by venipuncture from each MS patient pre-treatment and at successive time points during treatment (3 months, 6 months, 9-12 months and 24 months). PBMC were purified using Ficoll-Hypaque gradients as described in the supplier's protocol (ICN Biomedicals Inc. Ohio, USA). Samples from collaborating centers were sent via overnight FedEx™ delivery at room temperature and processed immediately upon arrival.
# (§2) Interleukin-18 and caspase-1 levels were detected by human ELISA kits (Sandwich ELISA, Bender Nedaystems, USA). The sensitivity of the ELISA was 9.2 and 3.3 pg/ml for IL-18 and caspase-1 respectively. TGF-β, TNF-α, IL-4, IFN-γ, IL-17 and IL-10 levels were detected by human ELISA kits from ebioscience (San Diego Calif., 92121 USA). The sensitivity of the ebioscience kits were 60 pg/ml, 4 pg/ml, 2 pg/ml, 4 pg/ml, 4 pg/ml and 2 pg/ml respectively. BDNF was detected by the Human BDNF ELISA kit from Chemicon International (catalog #CYT306). The sensitivity of the BDNF ELISA was 7.8 pg/ml. […] Duplicates should be within 20% of the mean.
# TNF-α = experiment: Serum TNF-α by ELISA in GA-treated MS patients; type: in vivo, human
# Text: as §1, §2
# BDNF = BDNF by ELISA in supernatant of GA-stimulated PBMC; type: cell-based, human
# Method: as §1
# 2×10^5 PBMC/well were seeded in 96 well U-bottom micro titer plate in the absence of antigen (unstimulated condition) (US) or the presence of GA at 40 and 100 μg/ml (Teva Pharmaceutical Industries, Ltd., Israel), tetanus toxoid (TT 5 μg) obtained from UMASS (University of Mass, Worcester, Mass.). The latter was used as a control antigen. Supernatants were collected from cultured cells at days 1, 3 and 5 for various assays. After 5 days, 1 μCi ^3H-thymidine was added. […] Incorporated radioactivity was measured using a liquid Scintillation counter (Wallac MicroBeta Trilux, PerkinElmer, Boston, Mass.).
# Interleukin-18 and caspase-1 levels were detected by human ELISA kits (Sandwich ELISA, Bender Nedaystems, USA). […] TGF-β, TNF-α, IL-4, IFN-γ, IL-17 and IL-10 levels were detected by human ELISA kits from ebioscience (San Diego Calif., 92121 USA). […] BDNF was detected by the Human BDNF ELISA kit from Chemicon International (catalog #CYT306). […]
# [1] = system: relapsing-remitting MS (RR-MS) patients; experiment: Prospective 2-year study of GA-treated RR-MS patients: ARR and EDSS; type: in vivo, human
# Method: This is a prospective study in which sixty-two relapsing-remitting MS (RR-MS) patients treated with GA were classified clinically as GA-R (N=42) or GA-HR/NR (N=20) after 2 years of treatment. Cytokine levels, brain-derived neurotrophic factor (BDNF) levels, and T-cell proliferation to GA were analyzed at baseline, 3, 6, 9-12 and 24 months and assessed for their predictive value of clinical response after 2 years of treatment.
# Sixty-two patients diagnosed with definite RR-MS (relapsing-remitting MS) according to the McDonald criteria (33) were included in the study. Following recruitment, the patients were treated with GA for at least 2 years. Subjects were closely followed up at the University of Medicine and Dentistry New Jersey (UMDNJ)-Robert Wood Johnson Medical School, University of Maryland Center for MS, the Gimbel MS Center, Teaneck, N.J. and the Carolina Medical Center-MS Center, Charlotte, N.C. Fifty patients were females with a mean age of 41±10.3 years and 12 were males with a mean age of 39.0±11.9 years. Patients had at least one relapse during the year prior to initiation of GA therapy (Table 2). After at least 2 years on GA therapy, patients were classified as GA-R (n=42) or GA-HR/NR (n=20) based on a clinical criteria more stringent than those recently reported in the literature. (34) A responder (R) is a patient with an annual relapse rate (ARR)<0.5 and no evidence of disease progression as measured by EDSS (expanded disability status scale). A hypo/non-responder (HR/NR) is a patient with an ARR>0.5 and/or with progression in the EDSS of at least 1 point sustained for 6 months (Table 3).
# The patients were classified as GA-responders or hypo/non-responders after being treated with GA for at least 24 months, based on their ARR and progression in disability while on treatment (Tables 1 and 3). The mean disease duration was 8.3±6.1 years for the GA-R group and 12.2±8.2 years for GA-HR/NR group. The mean treatment duration was 26.4±6.6 months for the GA-R group and 26.1±5.9 months for the GA-HR/NR group.
# IL-4 = experiment: Serum IL-4 by ELISA in GA-treated MS patients; type: in vivo, human
# Text: as §1, §2
# PBMC = experiment: Lymphoproliferation assay (3H-thymidine) of ex-vivo PBMC; type: cell-based, human
# Method: as §1
# 2×10^5 PBMC/well were seeded in 96 well U-bottom micro titer plate in the absence of antigen (unstimulated condition) (US) or the presence of GA at 40 and 100 μg/ml (Teva Pharmaceutical Industries, Ltd., Israel), tetanus toxoid (TT 5 μg) obtained from UMASS (University of Mass, Worcester, Mass.). The latter was used as a control antigen. Supernatants were collected from cultured cells at days 1, 3 and 5 for various assays. After 5 days, 1 μCi ^3H-thymidine was added. Cells were harvested 18 hours later using TOMTEC cell harvester (TOMTEC, Hamden Conn.). Incorporated radioactivity was measured using a liquid Scintillation counter (Wallac MicroBeta Trilux, PerkinElmer, Boston, Mass.).
# TGF-β = experiment: Serum TGF-β by ELISA in GA-treated MS patients; type: in vivo, human
# Text: as §1, §2
substance,measurement,setting,value
Glatiramer acetate [GA],Serum IL-18 level,"IL-18; HR/NR, 3 mo",284 ± 35 pg/mL
same,Serum IL-18 level,"IL-18; HR/NR, 6 mo",310 ± 39 pg/mL
same,Serum IL-18 level,"IL-18; HR/NR, 9-12 mo",283 ± 22 pg/mL
same,Serum IL-18 level,"IL-18; HR/NR, 24 mo",265 ± 15 pg/mL
same,Serum IL-18 level,"IL-18; HR/NR, Pre-Rx",300 ± 29 pg/mL
same,Serum IL-18 level,"IL-18; R, 3 mo",279 ± 23 pg/mL
same,Serum IL-18 level,"IL-18; R, 6 mo",189 ± 26 pg/mL
same,Serum IL-18 level,"IL-18; R, 9-12 mo",262 ± 15 pg/mL
same,Serum IL-18 level,"IL-18; R, 24 mo",260 ± 12 pg/mL
same,Serum IL-18 level,"IL-18; R, Pre-Rx",304 ± 26 pg/mL
same,"Δ IL-18 6 months, Median (Non-Responders)","IL-18; serum, change from baseline",2
same,"Δ IL-18 6 months, Median (Responders)","IL-18; serum, change from baseline",−102
same,Serum TNF-α level,"TNF-α; HR, 3 mo",56 ± 5.0 pg/mL
same,Serum TNF-α level,"TNF-α; HR, 6 mo",55 ± 7.0 pg/mL
same,Serum TNF-α level,"TNF-α; HR, 9-12 mo",59 ± 5.18 pg/mL
same,Serum TNF-α level,"TNF-α; HR, 24 mo",52.4 ± 9.64 pg/mL
same,Serum TNF-α level,"TNF-α; HR, Pre-Rx",51 ± 3.0 pg/mL
same,Serum TNF-α level,"TNF-α; R, 3 mo",47 ± 3.3 pg/mL
same,Serum TNF-α level,"TNF-α; R, 6 mo",44 ± 4.6 pg/mL
same,Serum TNF-α level,"TNF-α; R, 9-12 mo",54 ± 4.24 pg/mL
same,Serum TNF-α level,"TNF-α; R, 24 mo",50.13 ± 1.5 pg/mL
same,Serum TNF-α level,"TNF-α; R, Pre-Rx",57 ± 3.6 pg/mL
same,"Δ TNF-alpha 6 months, Median (Non-Responders)","TNF-α; serum, change from baseline",1
same,"Δ TNF-alpha 6 months, Median (Responders)","TNF-α; serum, change from baseline",−14
same,BDNF production with GA used as ex-vivo stimulus,BDNF; GA versus TT as stimulus of PBMC,slightly higher level compared to TT
same,supernatant BDNF levels from GA-stimulated PBMCs,"BDNF; GA-R group, 3 months, p=0.01, not in the GA HR/NR group",significant increase at 3 months during treatment compared to baseline
same,Mean ARR,"[1]; GA-HR/NR, 24 mo Rx",0.75 ± 0.50
same,Mean EDSS,"[1]; GA-HR/NR, 24 mo Rx",3.2 ± 1.37
same,Mean ARR,"[1]; GA-HR/NR, Pre-Rx",0.80 ± 0.49
same,Mean EDSS,"[1]; GA-HR/NR, Pre-Rx",1.95 ± 0.95
same,increase in the EDSS,"[1]; GA-HR/NR, during treatment",1.12 point
same,reduction in the ARR,"[1]; GA-HR/NR, during treatment",6.25%
same,Mean ARR,"[1]; GA-R, 24 mo Rx",0.14 ± 0.25
same,Mean EDSS,"[1]; GA-R, 24 mo Rx",1.57 ± 1.0
same,Mean ARR,"[1]; GA-R, Pre-Rx",0.67 ± 0.46
same,Mean EDSS,"[1]; GA-R, Pre-Rx",2.18 ± 1.08
same,decrease in the EDSS,"[1]; GA-R, during treatment",0.61 point
same,reduction in the ARR,"[1]; GA-R, during treatment",79%
same,Serum IL-4 level,"IL-4; HR/NR, 3 mo",13 ± 0.92 pg/mL
same,Serum IL-4 level,"IL-4; HR/NR, 6 mo",13 ± 1.4 pg/mL
same,Serum IL-4 level,"IL-4; HR/NR, 9-12 mo",18 ± 1.4 pg/mL
same,Serum IL-4 level,"IL-4; HR/NR, 24 mo",16 ± 1 pg/mL
same,Serum IL-4 level,"IL-4; HR/NR, Pre-Rx",14 ± 0.70 pg/mL
same,Serum IL-4 level,"IL-4; R, 3 mo",16 ± 0.70 pg/mL
same,Serum IL-4 level,"IL-4; R, 6 mo",17 ± 0.81 pg/mL
same,Serum IL-4 level,"IL-4; R, 9-12 mo",17 ± 1.8 pg/mL
same,Serum IL-4 level,"IL-4; R, 24 mo",16 ± 1.0 pg/mL
same,Serum IL-4 level,"IL-4; R, Pre-Rx",16 ± 0.60 pg/mL
same,"Δ IL-4 6 months, Median (Non-Responders)","IL-4; serum, change from baseline",−1.5
same,"Δ IL-4 6 months, Median (Responders)","IL-4; serum, change from baseline",1
same,ex-vivo PBMC proliferative response over the course of GA treatment,"PBMC; antigens GA 40 and 100 μg/ml, TT 5 μg/ml, ΔCPM",initial increase in the proliferative response to GA and TT at 3 months during treatment followed by a decline after 6 months of treatment
same,"PBMC proliferation, GA-R versus GA-HR/NR","PBMC; before or during treatment at 3, 6, 12 months or 2 years, p >0.05",no difference in PBMC proliferation to GA or TT between GA-R and GA-HR/NR
same,Serum TGF-β level,"TGF-β; HR/NR, 3 mo",1921 ± 150 pg/mL
same,Serum TGF-β level,"TGF-β; HR/NR, 6 mo",1723 ± 147 pg/mL
same,Serum TGF-β level,"TGF-β; HR/NR, 9-12 mo",1727 ± 97 pg/mL
same,Serum TGF-β level,"TGF-β; HR/NR, 24 mo",1844 ± 53 pg/mL
same,Serum TGF-β level,"TGF-β; HR/NR, Pre-Rx",1796 ± 95 pg/mL
same,Serum TGF-β level,"TGF-β; R, 3 mo",1908 ± 70 pg/mL
same,Serum TGF-β level,"TGF-β; R, 6 mo",1968 ± 75 pg/mL
same,Serum TGF-β level,"TGF-β; R, 9-12 mo",1901 ± 64 pg/mL
same,Serum TGF-β level,"TGF-β; R, 24 mo",1983 ± 93 pg/mL
same,Serum TGF-β level,"TGF-β; R, Pre-Rx",1774 ± 48 pg/mL
